Measured values reported in US20100036088A1, “Selective poly-N-substituted glycine antibiotics” (priority 2008, published 2010).
Square brackets hold non-standard residues; d marks the D form. Peptide text beside a SMILES is read from it. Nspe = C[C@H](NCC(=O)O)c1ccccc1; Nlys = NCCCCNCC(=O)O

Key:
[1] = tested on: Candida albicans (SC5314); type: cell-based, C. albicans; settings: Table 2
Protocol: Additionally, in order to characterize possible antifungal activity, a library of alkylated compounds was tested against C. albicans, a representative fungal strain.
Antifungal Assays. MICs were determined using the broth microdilution assay given by CLSI M27-A2 protocols. Candida albicans (SC5314) was grown on Sabouraud dextrose agar for 24 hours at 30° C. Cells were suspended in 0.145 M saline, and the cell concentration was adjusted to 3×10^6 cells/mL. After adjusting the cell concentration, the suspension was diluted 1:1000 with RPMI 1640 (with L-glutamine and without sodium bicarbonate, Invitrogen) buffered with 0.145 M 3-(N-morpholino) propanesulfonic acid (MOPS). Two-fold serial dilutions of peptoids, peptides, and amphotericin B (Calbiochem) were prepared in RPMI 1640 and mixed with an equal volume of the cell suspension in 96-well plates. The final testing concentrations for the peptoids and peptides were 0.20 to 100 μM, and concentrations for amphotericin B were 0.031 to 16 μM. Growth controls and sterility controls were also included. Plates were incubated for 48 hours at 35° C., and growth of C. albicans was inspected visually to determine the MICs. The MIC for each compound was defined as the lowest concentration with no visible fungal growth. Experiments were performed in duplicate on two separate days.

[2] = tested on: NIH 3T3 mouse fibroblast cells; assay: MTS assay, metabolic inhibition; type: cell-based; settings: Table 3; NIH 3T3 cells
Outline: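 NIH/3T3 cells seeded at 5,000 per well, grown a day, then exposed to serially diluted peptoids in HBSS together with MTS reagent. Absorbance at 490 nm read after 3 hours at 37° C.; mean of six replicates.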

Structure (SMILES): C[C@@H](c1ccccc1)N(CC(N)=O)C(=O)CN(C(=O)CN(CCCCN)C(=O)CN(C(=O)CN(C(=O)CN(CCCCN)C(=O)CN(C(=O)CN(C(=O)CN(CCCCN)C(=O)CN(C(=O)CN(C(=O)CNCCCCN)[C@@H](C)c1ccccc1)[C@@H](C)c1ccccc1)[C@@H](C)c1ccccc1)[C@@H](C)c1ccccc1)[C@@H](C)c1ccccc1)[C@@H](C)c1ccccc1)[C@@H](C)c1ccccc1 [compound 1, H-(NLys-Nspe-Nspe)4-NH2] (H-[Nlys][Nspe][Nspe][Nlys][Nspe][Nspe][Nlys][Nspe][Nspe][Nlys][Nspe][Nspe]-NH2)
- C. albicans MIC [1]: 6.3 µM
- ID10 (10% metabolic inhibitory concentration) [2]: 5.1
- ID50 (50% metabolic inhibitory concentration) [2]: 1.4
